According to patent publication US20070275007A1, “Carbohydrate Antigen-Nanoparticle Conjugates and Uses Thereof as Antimetastatic Agents in Treating Cancer” (The Government of the United States of America, represented …, priority 2003, published 2007):

Assay: Solubility in water and organic solvents
Type: physicochemical

## CC(=O)NC1[C@H](OCCCCCS)OC(CO)[C@H](O)[C@@H]1O[C@@H]1OC(CO)[C@H](O)[C@H](O)C1O (stereo partly drawn) [126E-23]
chloroform
  solubility in chloroform: moderately soluble
Methanol (methanol and other organic solvents)
  solubility in methanol: moderately soluble
water
  solubility in water: soluble
